Measured values as given in PMC7830303, “Development of Antimicrobial Stapled Peptides Based on Magainin 2 Sequence” (Molecules, 2021).
In brackets after ≈: the same amount, converted by molar mass. Bridge positions count the residues as written; N and C are the ends. Square brackets hold non-standard residues; d marks the D form. Peptide text beside a SMILES is read from it. * marks the point of attachment. R8 = C=CCCCCCC[C@@](C)(N)C(=O)O; Lauroyl = CCCCCCCCCCCC(=O)*; S5 = C=CCCC[C@](C)(N)C(=O)O

Legend:
[1] = tested on: multiple-drug resistant P. aeruginosa (MDRP); format: cell-based, Pseudomonas aeruginosa; settings: multiple-drug resistant (MDRP, 16 h)
Procedure: (§1) Selected bacterial strains were obtained from Biological Resource Center, NITE (NBRC; Tokyo, Japan). E. coli DH5α was purchased from BioDynamics Laboratory, Inc. (Tokyo, Japan). The antimicrobial activities of the peptides against the gram-positive S. aureus and gram-negative E. coli DH5α, P. aeruginosa, and MDRP were measured using standard broth microdilution method as previously described. Briefly, the bacteria were inoculated and grown overnight at 37 °C on agar media for other organisms i and then collected with liquid media for other organisms ii, according to Japanese Pharmacopoeia, 17th Edition. Each peptide was 2-fold serially diluted with an initial concentration of 500 μM to a final concentration of 1 μM using PBS. Then, 10 μL of the peptide solution was added to each well of a sterile 96-well plate. Subsequently, 90 μL of inoculation with 10^4 colony forming units (CFUs) per mL were added to each well, and the plate was incubated at 35 °C for 16 h.

Escherichia coli DH5α = format: cell-based; settings: 16 h
Procedure: as §1

Staphylococcus aureus = format: cell-based; settings: 16 h
Procedure: as §1

Pseudomonas aeruginosa = format: cell-based; settings: 16 h
Procedure: as §1

| Structure (SMILES) | MIC, Gram Negative, MDRP [1] [µM] | MIC, Gram Negative, E.c. (DH5α) (Escherichia coli DH5α) [µM] | MIC, Gram Positive, S.a. (Staphylococcus aureus) [µM] | MIC, Gram Negative, P.a. (Pseudomonas aeruginosa) [µM] |
| --- | --- | --- | --- | --- |
| CC[C@H](C)[C@H](NC(=O)CN)C(=O)N[C@@H](CCCCN)C(=O)N[C@@H](CCCCN)C(=O)N[C@]1(C)CCCCCCC=CCCC[C@@](C)(C(=O)N[C@H](C(=O)N[C@@H](CCCCN)C(=O)N[C@@H](C)C(=O)N[C@@H](Cc2ccccc2)C(=O)N[C@@H](CCCCN)C(N)=O)C(C)C)NC(=O)[C@H](CCCCN)NC(=O)[C@H](CCCCN)NC(=O)[C@H](C)NC(=O)[C@H](CO)NC(=O)[C@H](CCCCN)NC(=O)[C@H](CC(C)C)NC1=O [Peptide 7] (H-GIKK[R8]LKSAKK[S5]VKAFK-NH2; staple 5-12) | 1.56 (≈ 3.07 µg/mL) | 3.125 (≈ 6.14 µg/mL) | 25 (≈ 49.1 µg/mL) | 3.125 (≈ 6.14 µg/mL) |
| CC[C@H](C)[C@H](NC(=O)CN)C(=O)N[C@@H](CCCCN)C(=O)N[C@@H](CCCCN)C(=O)N[C@@H](Cc1ccccc1)C(=O)N[C@@H](CC(C)C)C(=O)N[C@@H](CCCCN)C(=O)N[C@@]1(C)CCCC=CCCC[C@@](C)(C(=O)N[C@H](C(=O)N[C@@H](CCCCN)C(=O)N[C@@H](C)C(=O)N[C@@H](Cc2ccccc2)C(=O)N[C@@H](CCCCN)C(N)=O)C(C)C)NC(=O)[C@H](CCCCN)NC(=O)[C@H](CCCCN)NC(=O)[C@H](C)NC1=O [Peptide 4] (H-GIKKFLK[S5]AKK[S5]VKAFK-NH2; staple 8-12) | 0.78 (≈ 1.55 µg/mL) | 1.56 (≈ 3.09 µg/mL) | 6.25 (≈ 12.4 µg/mL) | 1.56 (≈ 3.09 µg/mL) |
| CC[C@H](C)[C@H](NC(=O)CN)C(=O)N[C@@H](CCCCN)C(=O)N[C@@H](CCCCN)C(=O)N[C@@H](Cc1ccccc1)C(=O)N[C@@H](CC(C)C)C(=O)N[C@@H](CCCCN)C(=O)N[C@@H](CO)C(=O)N[C@@H](C)C(=O)N[C@@H](CCCCN)C(=O)N[C@@H](CCCCN)C(=O)N[C@@]1(C)CCCC=CCCC[C@@](C)(C(=O)N[C@@H](CCCCN)C(N)=O)NC(=O)[C@H](C)NC(=O)[C@H](CCCCN)NC(=O)[C@H](C(C)C)NC1=O [Peptide 6] (H-GIKKFLKSAKK[S5]VKA[S5]K-NH2; staple 12-16) | 0.78 (≈ 1.5 µg/mL) | 1.56 (≈ 3 µg/mL) | 3.125 (≈ 6.01 µg/mL) | 1.56 (≈ 3 µg/mL) |
| CC[C@H](C)[C@@H]1NC(=O)[C@@](C)(N)CCCC=CCCC[C@@](C)(C(=O)N[C@@H](CC(C)C)C(=O)N[C@@H](CCCCN)C(=O)N[C@@H](CO)C(=O)N[C@@H](C)C(=O)N[C@@H](CCCCN)C(=O)N[C@@H](CCCCN)C(=O)N[C@@H](Cc2ccccc2)C(=O)N[C@H](C(=O)N[C@@H](CCCCN)C(=O)N[C@@H](C)C(=O)N[C@@H](Cc2ccccc2)C(=O)N[C@@H](CCCCN)C(N)=O)C(C)C)NC(=O)[C@H](CCCCN)NC(=O)[C@H](CCCCN)NC1=O [Peptide 2] (H-[S5]IKK[S5]LKSAKKFVKAFK-NH2; staple 1-5) | 1.56 (≈ 3.14 µg/mL) | 1.56 (≈ 3.14 µg/mL) | 3.125 (≈ 6.29 µg/mL) | 1.56 (≈ 3.14 µg/mL) |
| CC[C@H](C)[C@H](NC(=O)CN)C(=O)N[C@@H](CCCCN)C(=O)N[C@@H](CCCCN)C(=O)N[C@@H](Cc1ccccc1)C(=O)N[C@@H](CC(C)C)C(=O)N[C@@H](CCCCN)C(=O)N[C@@H](CO)C(=O)N[C@]1(C)CCCCCCC=CCCC[C@@](C)(C(=O)N[C@@H](CCCCN)C(N)=O)NC(=O)[C@H](C)NC(=O)[C@H](CCCCN)NC(=O)[C@H](C(C)C)NC(=O)[C@H](Cc2ccccc2)NC(=O)[C@H](CCCCN)NC(=O)[C@H](CCCCN)NC1=O [Peptide 9] (H-GIKKFLKS[R8]KKFVKA[S5]K-NH2; staple 9-16) | 3.125 (≈ 6.38 µg/mL) | 3.125 (≈ 6.38 µg/mL) | 6.25 (≈ 12.8 µg/mL) | 6.25 (≈ 12.8 µg/mL) |
| CC[C@H](C)[C@H](NC(=O)CN)C(=O)N[C@@H](CCCCN)C(=O)N[C@@H](CCCCN)C(=O)N[C@@H](Cc1ccccc1)C(=O)N[C@@H](CC(C)C)C(=O)N[C@@H](CCCCN)C(=O)N[C@]1(C)CCCCCCC=CCCC[C@@](C)(C(=O)N[C@@H](Cc2ccccc2)C(=O)N[C@@H](CCCCN)C(N)=O)NC(=O)[C@H](CCCCN)NC(=O)[C@H](C(C)C)NC(=O)[C@H](Cc2ccccc2)NC(=O)[C@H](CCCCN)NC(=O)[C@H](CCCCN)NC(=O)[C@H](C)NC1=O [Peptide 8] (H-GIKKFLK[R8]AKKFVK[S5]FK-NH2; staple 8-15) | 3.125 (≈ 6.57 µg/mL) | 6.25 (≈ 13.1 µg/mL) | >50 | >50 |
| CC[C@H](C)[C@H](NC(=O)CN)C(=O)N[C@@H](CCCCN)C(=O)N[C@@H](CCCCN)C(=O)N[C@@H](Cc1ccccc1)C(=O)N[C@@H](CC(C)C)C(=O)N[C@@H](CCCCN)C(=O)N[C@@H](CO)C(=O)N[C@@]1(C)CCCC=CCCC[C@@](C)(C(=O)N[C@@H](CCCCN)C(=O)N[C@@H](C)C(=O)N[C@@H](Cc2ccccc2)C(=O)N[C@@H](CCCCN)C(N)=O)NC(=O)[C@H](Cc2ccccc2)NC(=O)[C@H](CCCCN)NC(=O)[C@H](CCCCN)NC1=O [Peptide 5] (H-GIKKFLKS[S5]KKF[S5]KAFK-NH2; staple 9-13) | 3.125 (≈ 6.4 µg/mL) | 1.56 (≈ 3.19 µg/mL) | 12.5 (≈ 25.6 µg/mL) | 6.25 (≈ 12.8 µg/mL) |
| CCCCCCCCCCCC(=O)N[C@@]1(C)CCCC=CCCC[C@@](C)(C(=O)N[C@@H](CC(C)C)C(=O)N[C@@H](CCCCN)C(=O)N[C@@H](CO)C(=O)N[C@@H](C)C(=O)N[C@@H](CCCCN)C(=O)N[C@@H](CCCCN)C(=O)N[C@@H](Cc2ccccc2)C(=O)N[C@H](C(=O)N[C@@H](CCCCN)C(=O)N[C@@H](C)C(=O)N[C@@H](Cc2ccccc2)C(=O)N[C@@H](CCCCN)C(N)=O)C(C)C)NC(=O)[C@H](CCCCN)NC(=O)[C@H](CCCCN)NC(=O)[C@H]([C@@H](C)CC)NC1=O [Peptide C12-2] (Lauroyl-[S5]IKK[S5]LKSAKKFVKAFK-NH2; staple 1-5) | 25 (≈ 54.9 µg/mL) | 6.25 (≈ 13.7 µg/mL) | 6.25 (≈ 13.7 µg/mL) | 12.5 (≈ 27.4 µg/mL) |
| CC[C@H](C)[C@H](NC(=O)CN)C(=O)N[C@@H](CCCCN)C(=O)N[C@@H](CCCCN)C(=O)N[C@@]1(C)CCCC=CCCC[C@@](C)(C(=O)N[C@@H](CCCCN)C(=O)N[C@@H](CCCCN)C(=O)N[C@@H](Cc2ccccc2)C(=O)N[C@H](C(=O)N[C@@H](CCCCN)C(=O)N[C@@H](C)C(=O)N[C@@H](Cc2ccccc2)C(=O)N[C@@H](CCCCN)C(N)=O)C(C)C)NC(=O)[C@H](CO)NC(=O)[C@H](CCCCN)NC(=O)[C@H](CC(C)C)NC1=O [Peptide 3] (H-GIKK[S5]LKS[S5]KKFVKAFK-NH2; staple 5-9) | 0.78 (≈ 1.56 µg/mL) | 1.56 (≈ 3.12 µg/mL) | 3.125 (≈ 6.25 µg/mL) | 3.125 (≈ 6.25 µg/mL) |
